Test results published in article PMC11872507, “Lasso peptides sviceucin and siamycin I exhibit anti-virulence activity and restore vancomycin effectiveness in vancomycin-resistant pathogens” (iScience, 2025).
In brackets after ≈: the same amount, converted by molar mass. Positions of bridges follow the written chain, without caps; N, C: chain ends. Residues, ends and D or L forms follow the SMILES beside them. No end group written: not given here.

Legend:
E. faecalis merz96 = experiment: microbe, parasite or virus in culture; type: cell-based, Enterococcus faecalis; settings: peptide alone, without vancomycin; VanB
S. aureus 16038 (VISA) = experiment: microbe, parasite or virus in culture; type: cell-based, Staphylococcus aureus; settings: peptide alone, without vancomycin; van-
E. faecalis V583 ΔvanB = experiment: microbe, parasite or virus in culture; type: cell-based, Enterococcus faecalis; settings: peptide alone, without vancomycin; van-
E. faecalis V583 = experiment: microbe, parasite or virus in culture; type: cell-based, Enterococcus faecalis; settings: peptide alone, without vancomycin; VanB
[1] = tested on: all tested E. faecalis and E. faecium strains; experiment: Growth inhibition / MIC, strain panel; type: cell-based; settings: peptide alone
E. faecalis HIP11704 = experiment: microbe, parasite or virus in culture; type: cell-based, Enterococcus faecalis; settings: peptide alone, without vancomycin; VanA
E. faecalis JH2-2 08048 = experiment: microbe, parasite or virus in culture; type: cell-based, Enterococcus faecalis; settings: peptide alone, without vancomycin; VanB
Description: (§1) The MIC of vancomycin was determined by the microdilution method described in the guidelines of the European Committee on Antimicrobial Susceptibility Testing (EUCAST 2024, v14.0 Breakpoint Tables).[58] For enterococci, GM17 medium was used instead of CAMH medium since enterococci cannot degrade starch, the main carbohydrate of MH medium. 2-fold serial dilutions of the tested antibiotic were performed to obtain concentrations ranging from 0.5 to 512 μg/mL. LP were then added to the wells at the desired concentration. The medium was inoculated with a final inoculum of 5 × 10^5 CFU/mL. The MIC is the lowest concentration that prevents visible in vitro growth.

E. faecium 1 231 410 = experiment: microbe, parasite or virus in culture; type: cell-based, Enterococcus faecium; settings: peptide alone, without vancomycin; VanA
VanS^127-384 [2] = target: T1, VanS^127-384 (Enterococcus faecium, UniProt Q06240); experiment: biochemical; type: binding
T1 construct: only the C-terminal His6-tagged VanA-type VanS^127-384 could be obtained as a soluble protein; made in house; host or cells: E. coli BL21(DE3), plasmid pET29b(+) vanS^127-384

[3] = tested on: Galleria mellonella larvae; experiment: Toxicity toward larvae; type: in vivo; settings: siamycin I-loaded nanoemulsion, about 18 mg/kg, 90 min and 24 h, observed to 96 h
Description: Larvae were infected with the wild-type strain E. faecalis V583, the isogenic vancomycin-sensitive mutant V583 ΔvanB, or an equivalent volume of saline solution. At t90min and t24h post-infection (p.i.), the larvae were treated with the nanoemulsion alone (referred to as formulation), the nanoemulsion loaded with siamycin I (3.92 μg/larvae; about 18 mg/kg), vancomycin (1 μg/larvae; about 4.6 mg/kg) alone, or a combination of both. Larvae survival was assessed, and statistical analysis was performed at the endpoint t96h.
To assess the C1LPs' efficacy as treatment of E. faecalis infection, the strains V583 or V583 ΔvanB were grown without previous C1LP exposition. 20 larvae were used for each condition. At 1.5 and 24 h p.i., larvae were injected with 4.76 mg of vancomycin per kilogram and/or 18 mg of siamycin I per kilogram, or the equivalent volume of nanoemulsion as a control. Larvae killing was then monitored between 1.5 and 96 h p.i.. Data and statistical analysis were performed using the Kaplan-Meier R package and the log -rank test, respectively.

E. faecium 1 230 933 = experiment: microbe, parasite or virus in culture; type: cell-based, Enterococcus faecium; settings: peptide alone, without vancomycin; VanA
[4] = tested on: VanB- or VanA-type strains; settings: same among the different VanB- or VanA-type strains
Description: as §1

S. aureus T-SAR12 VRSA.B = experiment: microbe, parasite or virus in culture; type: cell-based, Staphylococcus aureus; settings: peptide alone, without vancomycin; VanB
Description: as §1

S. aureus T-SAR12 VRSA.A = experiment: microbe, parasite or virus in culture; type: cell-based, Staphylococcus aureus; settings: peptide alone, without vancomycin; VanA
Description: as §1

E. faecium 1 231 502 = experiment: microbe, parasite or virus in culture; type: cell-based, Enterococcus faecium; settings: peptide alone, without vancomycin; VanA
[5] = target: T2, VanS^127-384 (VanA-type, C-His6) (Enterococcus faecium, UniProt Q06240); experiment: biochemical
T2 construct: only the C-terminal His6-tagged VanA-type VanS^127-384 could be obtained as a soluble protein; made in house; host or cells: E. coli BL21(DE3), plasmid pET29b(+) vanS^127-384
Description: (§2) Terrific medium[68] […] The culture was incubated at 37°C with agitation at 180 rpm. Induction of protein expression was achieved by adding IPTG to a final concentration of 0.1 mM when the bacterial density reached an OD600 of 0.5. The culture was then incubated for 20 h at 25°C with agitation at 180 rpm. The cells were then washed twice in purification buffer (20 mM sodium phosphate buffer, 500 mM NaCl, 5 mM MgCl2, 10 mM imidazole (pH 7.4)). Cells were treated with lysozyme at 1 mg/mL final concentration for 30 min at 4°C and lysed by sonication with the Fisherbrand Model 120 Sonic Dismembrator (Fisher scientific, USA). The total fraction recovered was centrifuged at 10000 rpm at 4°C for 30 to 45 min and only the supernatant, representing the soluble fraction, was recovered for purification.
(§3) Protein purification was carried out on a HisTrap FF Crude 5 mL column (Cytiva, USA) using the ÄKTA start device (Cytiva, USA), following the manufacturer’s recommendations. […] Protein concentration was determined with the Pierce BCA Protein Assay Kit (Thermo Scientific, USA) according to the manufacturer’s recommendations and then stored at −80°C.
(§4) The phosphorylation assay followed reported procedure with some modifications.[38] […] The reaction was allowed to start by adding ATP and NADH, and monitored continuously at 340 nm at 37°C by a microplate reader (POLARstar OMEGA, BMG Labtech, Germany). […]

VanS^127-384 [6] = target: T3, VanS^127-384 (Enterococcus faecium, UniProt Q06240); experiment: biochemical; type: binding; settings: 10 μM VanS, pH 7.5; siamycin I 6 to 90 μM; sviceucin 12 to 180 μM; microcin J25 25 to 200 μM
T3 construct: only the C-terminal His6-tagged VanA-type VanS^127-384 could be obtained as a soluble protein; made in house; host or cells: E. coli BL21(DE3), plasmid pET29b(+) vanS^127-384
T3 sequence (Q06240 whole entry, looked up): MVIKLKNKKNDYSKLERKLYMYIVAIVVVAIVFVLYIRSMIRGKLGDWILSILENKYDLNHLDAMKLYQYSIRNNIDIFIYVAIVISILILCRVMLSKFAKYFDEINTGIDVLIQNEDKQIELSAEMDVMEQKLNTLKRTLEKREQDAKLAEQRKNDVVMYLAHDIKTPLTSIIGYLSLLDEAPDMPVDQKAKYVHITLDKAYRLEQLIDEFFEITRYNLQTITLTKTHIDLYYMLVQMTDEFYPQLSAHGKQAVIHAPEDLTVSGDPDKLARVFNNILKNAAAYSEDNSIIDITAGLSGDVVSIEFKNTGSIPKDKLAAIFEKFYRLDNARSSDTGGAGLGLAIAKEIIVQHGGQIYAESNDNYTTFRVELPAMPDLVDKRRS
Description: Protein purification was carried out on a HisTrap FF Crude 5 mL column (Cytiva, USA) using the ÄKTA start device (Cytiva, USA), following the manufacturer’s recommendations. The column was equilibrated with the purification buffer and then loaded with the soluble fraction. The protein of interest was washed and eluted with an imidazole gradient of 10 mM–500 mM in purification buffer. The purified protein was desalted and concentrated on a Vivaspin 6 30 kDa MWCO column (Cytiva, USA) according to the manufacturer’s recommendations. Protein concentration was determined with the Pierce BCA Protein Assay Kit (Thermo Scientific, USA) according to the manufacturer’s recommendations and then stored at −80°C.
All the experiments were performed in 96 Fast PCR Plates full skirt (Sarstedt, Germany) and in CFX96 Real-Time PCR system (BioRad, USA). Screening was conducted (Table S7) to determine the best buffer and ratios of protein and SYPRO Orange Protein Gel Stain (Sigma-Aldrich, USA). […] The Tm of each well was determined on the Melt Curve panel with a negative peak type. Tm means were calculated for each condition before model analysis. ΔT was calculated from the subtraction of the Tm of the protein with the buffer alone and the Tm with the lasso peptides. […]

[7] = target: T4, VanS^127-384 (VanA-type, C-His6) (Enterococcus faecium, UniProt Q06240); experiment: biochemical; settings: 0–100 μM peptide
T4 construct: only the C-terminal His6-tagged VanA-type VanS^127-384 could be obtained as a soluble protein; made in house; host or cells: E. coli BL21(DE3), plasmid pET29b(+) vanS^127-384
T4 sequence (Q06240 whole entry, looked up): T3 sequence (Q06240 whole entry, looked up)
Description: as §2, §3, §4

Question: How did the “Lasso peptide MIC” value (E. faecalis merz96) turn out when `CC[C@H](C)[C@@H]1NC(=O)[C@H](C)NC(=O)[C@H](Cc2ccc(O)cc2)NC(=O)CNC(=O)[C@@H]2CSSC[C@@H]3NC(=O)C[C@H](NC(=O)[C@H](CC(N)=O)NC(=O)[C@H](CSSC[C@@H](C(=O)N[C@@H](Cc4ccccc4)C(=O)N[C@@H](Cc4c[nH]c5ccccc45)C(=O)O)NC(=O)[C@H](C(C)C)NC1=O)NC(=O)[C@H](CO)NC(=O)CNC(=O)[C@H](C(C)C)NC(=O)CNC(=O)[C@H](CC(C)C)NC3=O)C(=O)N[C@@H](Cc1ccccc1)C(=O)N[C@@H](C)C(=O)NCC(=O)N2` [Siamycin I] (CLGVGSCNDFAGCGYAIVCFW-OH; disulfide 1-13, 7-19; lactam N-9) was run?
Answer: Its value is 5 µM.

Question: What about the “Lasso peptide MIC” value (S. aureus 16038 (VISA)) of the same compound?
Answer: Its value is 5 µM.

Question: What about the “Lasso peptide MIC” value (E. faecalis V583 ΔvanB) of the same compound?
Answer: Its value is 5 µM.

Question: What about the “Lasso peptide MIC” value (E. faecalis V583) of the same compound?
Answer: The value was 5 µM.

Question: What about the “MIC, complete growth inhibition” value [1] of the same compound?
Answer: The value was 5 µM (≈ 10.8 µg/mL).

Question: And the “Lasso peptide MIC” value (E. faecalis HIP11704)?
Answer: The value was 5 µM.

Question: What about the “Lasso peptide MIC” value (E. faecalis JH2-2 08048) of the same compound?
Answer: Its value is 5 µM.

Question: And the “Lasso peptide MIC” value (E. faecium 1 231 410)?
Answer: Its value is 5 µM.

Question: And the Kd (VanS^127-384 [2])?
Answer: Its Kd is 38 ± 1 µM.

Question: And the “toxicity toward the larvae” value [3]?
Answer: Its value is “did not exhibit toxicity toward the larvae”.

Question: And the “Lasso peptide MIC” value (E. faecium 1 230 933)?
Answer: The value was 5 µM.

Question: What about the “MIC of peptide in absence of vancomycin” value [4] of the same compound?
Answer: The value was 5 µM.

Question: What about the “Lasso peptide MIC” value (S. aureus T-SAR12 VRSA.B) of the same compound?
Answer: Its value is 5 µM.

Question: What about the “Lasso peptide MIC” value (S. aureus T-SAR12 VRSA.A) of the same compound?
Answer: The value was 5 µM.

Question: And the “Lasso peptide MIC” value (E. faecium 1 231 502)?
Answer: The value was 5 µM.

Question: How did the “Lasso peptide MIC” value (E. faecalis merz96) turn out when `CC[C@H](C)[C@@H]1NC(=O)[C@H](Cc2c[nH]c3ccccc23)NC(=O)[C@H](C)NC(=O)[C@H]([C@@H](C)O)NC(=O)CNC(=O)[C@@H]2CSSC[C@@H]3NC(=O)C[C@H](NC(=O)[C@H]([C@@H](C)O)NC(=O)[C@H](CSSC[C@@H](C(=O)N[C@H](C(=O)O)C(C)C)NC1=O)NC(=O)[C@H](CC(=O)O)NC(=O)CNC(=O)CNC(=O)[C@H](Cc1c[nH]c4ccccc14)NC(=O)[C@H](C(C)C)NC3=O)C(=O)N[C@@H](Cc1ccccc1)C(=O)N[C@@H](CC(C)C)C(=O)NCC(=O)N2` [Sviceucin] (CVWGGDCTDFLGCGTAWICV-OH; disulfide 1-13, 7-19; lactam N-9) was run?
Answer: The value was greater than 10 µM.

Question: What about the “Lasso peptide MIC” value (S. aureus 16038 (VISA)) of the same compound?
Answer: The value was greater than 10 µM.

Question: What about the “Lasso peptide MIC” value (E. faecalis V583 ΔvanB) of the same compound?
Answer: Its value is greater than 10 µM.

Question: And the “Lasso peptide MIC” value (E. faecalis V583)?
Answer: Its value is greater than 10 µM.

Question: And the “MIC, complete growth inhibition” value [1]?
Answer: Its value is “above 10 μM”.

Question: What about the “Lasso peptide MIC” value (E. faecalis HIP11704) of the same compound?
Answer: Its value is greater than 10 µM.

Question: What about the “Lasso peptide MIC” value (E. faecalis JH2-2 08048) of the same compound?
Answer: The value was greater than 10 µM.

Question: And the “Lasso peptide MIC” value (E. faecium 1 231 410)?
Answer: Its value is greater than 10 µM.

Question: What about the Kd (VanS^127-384 [2]) of the same compound?
Answer: Its Kd is 52 ± 1.6 µM.

Question: What about the IC50 [5] of the same compound?
Answer: The IC50 was 10.8 ± 1.5 µM.

Question: And the “Lasso peptide MIC” value (E. faecium 1 230 933)?
Answer: Its value is greater than 10 µM.

Question: And the “MIC of peptide in absence of vancomycin” value [4]?
Answer: The value was greater than 10 µM.

Question: What about the “Lasso peptide MIC” value (S. aureus T-SAR12 VRSA.B) of the same compound?
Answer: The value was greater than 10 µM.

Question: What about the “Lasso peptide MIC” value (S. aureus T-SAR12 VRSA.A) of the same compound?
Answer: Its value is greater than 10 µM.

Question: And the “Lasso peptide MIC” value (E. faecium 1 231 502)?
Answer: Its value is greater than 10 µM.

Question: For “Microcin J25: unrelated lasso peptide microcin J25 (GGAGHVPEYFVGIGTPISFYG; not fully specified)”, which “effect on melting temperature (Tm) of VanS^127-384, in words” value (VanS^127-384 [6]) is on record?
Answer: The value was “did not affect the Tm of VanS^127-384”.

Question: And the “effect on VanS^127-384 autophosphorylation, in words” value [7]?
Answer: Its value is “had no effect on VanS^127-384”.
